Laboratory results: paper PMC12302426, “Dihydrokoumine, a dual-target analgesic with reduced side effects isolated from a traditional Chinese medicine” (Journal of Advanced Research, 2024)
Read-outs that look alike come from different tables or passages of the source.

What was measured:
mu opioid receptor (MOR) = molecular target: T1, mu opioid receptor (MOR) (Homo sapiens, UniProt P35372); test: FLIPR Ca2+ assay in HEK293T-Mu cells; assay type: cell-based
T1 construct: expressed in transfected cells; host or cells: HEK293T-Mu
Method: (§1) FLIPR assay was carried out as reported earlier. Cell lines were seeded in 96-well plates with black walls (Greiner, USA) at 8.0 × 10^4 cells per well. After approximately 22 h of incubation, the cells were exposed to Calcium-6 dye (Molecular Devices, USA) in HBSS buffer supplemented with 20 mM HEPES (pH 7.4) at 37°C for one hour. Samples, redissolved in DMSO and housed in 96-well drug plates, underwent dilution with FLIPR buffer and subsequent automated introduction to the cells. […] In FLIPR antagonist experiments, cells were pre-incubated with the compound for 10 min prior to introducing a specified concentration of agonist. Results were presented as fluorescence (arbitrary units) plotted against time.

M3R = molecular target: T2, M3R (Homo sapiens, UniProt P20309); test: FLIPR Ca2+ antagonist assay in HEK293-M3 cells (carbachol-induced); assay type: cell-based
T2 construct: expressed in transfected cells; host or cells: HEK293 cell membranes
Method: as §1

adrenergic receptor β2 = molecular target: T3, adrenergic receptor β2 (Homo sapiens, UniProt P07550); test: DMR desensitization assay, A431, probe isoprenaline; assay type: cell-based; conditions: 100 μM DK
T3 construct: endogenous in cells; host or cells: A431
Method: (§2) DMR assays were performed using an Epic® BT system (Corning, NY, USA). All used cell lines were directly seeded in Epic 384-well biosensor microplates with a seeding density of 25,000 cells per well. After being cultured for about 22 h, the cells formed a monolayer with a confluency of about 95 % in the cell culture medium. Then the cells were manually washed using assay buffer (1 × HBSS buffer, 10 mM HEPES, pH = 7.4) and maintained in 30 μL of the assay buffer for 1 h. All samples were dissolved in DMSO and diluted freshly with the assay buffer containing 0.1 % BSA.
(§3) The receptor selectivity was evaluated against a set of G protein-coupled receptors (GPCRs), including opioid receptor (Delta/Kappa/NOP), dopamine receptor (D1/D2), orphan receptor (GPR35), adrenergic receptor (α2A/β2), serotonin receptor (5HT2A), histamine receptor (H1) and cannabinoid receptor (CB1). Following a 1-hour pretreatment with DK, a 2-min baseline was established before introducing probes and monitoring DMR signals for another hour. The cells and probes were as follows: Delta, HEK293-Delta, SNC162; Kappa, HEK293-Kappa, ICI199441; NOP, HEK293-NOP, MCOPPB; D1, HEK293-D1, dopamine; D2, HEK293-D2, dopamine; GPR35, CHO-K1-hGPR35, zaprinast; 5HT2A, HEK293-5HT2A, 5-hydroxytryptamine; α2A, HEK293-α2A, L-Noradrenaline; β2, A431, isoprenaline; H1, A431, histamine; CB1, CHO-K1-CB1, CP 55940. […]

Delta opioid receptor = molecular target: T4, Delta opioid receptor (Homo sapiens, UniProt P41143); test: DMR agonist and desensitization assay in HEK293-Delta cells; assay type: cell-based
T4 construct: expressed in transfected cells; host or cells: HEK293-Delta
Method: as §2
The DMR assays were conducted as follows. […] In the case of the DMR desensitization assay, cells were pretreated with analytes for one hour before introducing a specific agonist at the indicated concentration, and the agonist-induced DMR signals were monitored for one hour. Finally, for the DMR antagonist assay, cells underwent a 1-hour pretreatment with an antagonist before the addition of a specific agonist at the indicated concentration, and subsequent DMR signals were recorded over one hour.
The receptor selectivity was evaluated against a set of G protein-coupled receptors (GPCRs), including opioid receptor (Delta/Kappa/NOP), dopamine receptor (D1/D2), orphan receptor (GPR35), adrenergic receptor (α2A/β2), serotonin receptor (5HT2A), histamine receptor (H1) and cannabinoid receptor (CB1). Following a 1-hour pretreatment with DK, a 2-min baseline was established before introducing probes and monitoring DMR signals for another hour. The cells and probes were as follows: Delta, HEK293-Delta, SNC162; Kappa, HEK293-Kappa, ICI199441; NOP, HEK293-NOP, MCOPPB; D1, HEK293-D1, dopamine; D2, HEK293-D2, dopamine; GPR35, CHO-K1-hGPR35, zaprinast; 5HT2A, HEK293-5HT2A, 5-hydroxytryptamine; α2A, HEK293-α2A, L-Noradrenaline; β2, A431, isoprenaline; H1, A431, histamine; CB1, CHO-K1-CB1, CP 55940. The other detailed process was the same as above.

[1] = Pharmacokinetics, oral bioavailability; assay type: in vivo, SD male rats; conditions: rats, 20 mg/kg (method)
Method: Oral bioavailability evaluation was as follows. SD male rats (about 250 g) were used in bioavailability evaluation (n = 3). […] were given a single dose of DK (20 mg/kg, 5 mL/kg, […].) through intragastric administration or tail vein injection. Blood (300 μL) was collected at 0.083, 0.167, 0.25, 0.5, 1, 2, 4, 6, 8, and 10 h, into EDTA tubes. Plasma was obtained by mixing with acetonitrile and centrifugation (3000 r/min, 10 min).
Brain and plasma drug levels were measured by LC-30AD (Shimadzu Corporation Kyoto, Japan) and SCIEX QTRAP-6500 (AB Sciex, Foster City, CA, USA) and calculated by comparing with internal standard (koumine, 200 ng/mL). The used column was Waters ACQUITY UPLC BEH C18 (2.1*150 mm, 1.7 μm); the mobile phase was composed of (A) 0.1 % FA in water and (B) 0.1 % FA in ACN; the elution gradient was 20 % B (0–3 min), 20–40 % B (3–5 min), 40–95 % B (5–6 min); the flow rate was 0.3 mL/min; and detection was in the positive mode.

C57BL/6 mice = test: Acute toxicity study; assay type: in vivo; conditions: 200 mg/kg daily for 14 days
Method: Sixteen C57BL/6 mice (25 ± 1 g, 8 males, 8 females) were used in acute toxicity studies. The mice were randomly divided into 2 groups (half male, half female each group) and treated with either solvent mixture (control) or 200 mg/kg DK (DK-treated) daily for 14 days. Throughout the study, the animals were monitored for motor activity, mortality, and body weight changes, which were recorded every other day.
At the end of the experiment (24 h after final DK administration), blood samples were collected via direct heart puncture, allowed to clot at room temperature, and centrifuged at 3000 rpm for 15 min. Serum was separated and stored at […] for biochemical analysis. Liver and renal injury markers, including aspartate transaminase (AST), alanine transaminase (ALT), UREA, CREA, albumin (ALB), urine acid (UA) and Glucose (Glu), were measured using an automatic biochemical analyzer (Chemray 240, 420 and 800, Rayto, China).
Following blood collection, the mice were sacrificed, and the heart, liver, spleen, lung and kidney were excised. These tissues were fixed in 4 % paraformaldehyde (PFA), dehydrated gradually using ethanol (50–100 %), and embedded in paraffin after clearing with xylene. Sections ([…] thick) were stained with hematoxylin and eosin (HE) for examination.

[2] = molecular target: T5, serotonin receptor 5-HT2A (Homo sapiens, UniProt P28223); test: DMR desensitization assay, HEK293-5HT2A, probe 5-hydroxytryptamine; assay type: cell-based; conditions: 100 μM DK
T5 construct: expressed in transfected cells; host or cells: HEK293-5HT2A
Method: as §2, §3

T4 sequence (P41143 whole entry): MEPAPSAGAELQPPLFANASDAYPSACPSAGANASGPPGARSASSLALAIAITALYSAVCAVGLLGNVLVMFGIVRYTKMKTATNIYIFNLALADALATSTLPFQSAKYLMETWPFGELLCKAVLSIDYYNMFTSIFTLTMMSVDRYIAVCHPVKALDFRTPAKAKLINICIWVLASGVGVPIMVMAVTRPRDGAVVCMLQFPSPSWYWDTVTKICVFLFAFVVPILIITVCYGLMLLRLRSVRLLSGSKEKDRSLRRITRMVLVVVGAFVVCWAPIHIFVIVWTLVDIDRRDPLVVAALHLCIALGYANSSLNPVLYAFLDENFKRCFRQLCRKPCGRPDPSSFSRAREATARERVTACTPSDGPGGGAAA
T2 sequence (P20309 whole entry): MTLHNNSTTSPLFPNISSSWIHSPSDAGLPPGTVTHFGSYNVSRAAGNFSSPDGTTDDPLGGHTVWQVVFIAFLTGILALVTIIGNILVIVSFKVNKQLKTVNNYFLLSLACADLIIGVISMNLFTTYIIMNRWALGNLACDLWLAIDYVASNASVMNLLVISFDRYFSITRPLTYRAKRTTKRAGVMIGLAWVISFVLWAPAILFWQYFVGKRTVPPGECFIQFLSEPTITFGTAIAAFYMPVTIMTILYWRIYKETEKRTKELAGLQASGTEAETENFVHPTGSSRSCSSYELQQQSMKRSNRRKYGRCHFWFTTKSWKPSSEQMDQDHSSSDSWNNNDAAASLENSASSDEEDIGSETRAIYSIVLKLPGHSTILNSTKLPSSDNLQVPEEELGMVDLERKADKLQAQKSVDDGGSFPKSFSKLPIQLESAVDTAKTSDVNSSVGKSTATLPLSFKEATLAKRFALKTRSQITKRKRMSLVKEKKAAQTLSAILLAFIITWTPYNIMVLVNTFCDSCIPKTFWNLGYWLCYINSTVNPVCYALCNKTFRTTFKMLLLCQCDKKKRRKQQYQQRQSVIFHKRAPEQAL
T1 sequence (P35372 whole entry): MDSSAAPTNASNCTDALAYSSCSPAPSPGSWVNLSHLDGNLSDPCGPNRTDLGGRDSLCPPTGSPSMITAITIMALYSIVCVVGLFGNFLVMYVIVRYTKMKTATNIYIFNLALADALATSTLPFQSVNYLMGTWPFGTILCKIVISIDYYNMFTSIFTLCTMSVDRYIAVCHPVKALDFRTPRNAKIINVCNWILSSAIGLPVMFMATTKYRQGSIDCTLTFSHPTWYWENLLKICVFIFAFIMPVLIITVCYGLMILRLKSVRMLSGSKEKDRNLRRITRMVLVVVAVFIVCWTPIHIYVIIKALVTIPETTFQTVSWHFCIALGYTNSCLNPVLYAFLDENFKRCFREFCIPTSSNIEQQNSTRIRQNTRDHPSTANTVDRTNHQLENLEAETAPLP
T3 sequence (P07550 whole entry): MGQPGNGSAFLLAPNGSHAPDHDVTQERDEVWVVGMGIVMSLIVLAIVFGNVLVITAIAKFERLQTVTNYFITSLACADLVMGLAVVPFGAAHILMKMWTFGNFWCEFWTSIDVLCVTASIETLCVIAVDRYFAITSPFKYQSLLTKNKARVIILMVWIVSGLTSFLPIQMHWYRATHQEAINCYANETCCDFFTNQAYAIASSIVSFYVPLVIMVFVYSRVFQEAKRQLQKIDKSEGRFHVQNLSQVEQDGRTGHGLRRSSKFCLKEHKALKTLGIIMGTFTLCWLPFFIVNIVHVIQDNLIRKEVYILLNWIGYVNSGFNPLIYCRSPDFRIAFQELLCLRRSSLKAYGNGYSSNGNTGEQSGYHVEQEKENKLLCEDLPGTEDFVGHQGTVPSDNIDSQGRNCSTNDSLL
T5 sequence (P28223 whole entry): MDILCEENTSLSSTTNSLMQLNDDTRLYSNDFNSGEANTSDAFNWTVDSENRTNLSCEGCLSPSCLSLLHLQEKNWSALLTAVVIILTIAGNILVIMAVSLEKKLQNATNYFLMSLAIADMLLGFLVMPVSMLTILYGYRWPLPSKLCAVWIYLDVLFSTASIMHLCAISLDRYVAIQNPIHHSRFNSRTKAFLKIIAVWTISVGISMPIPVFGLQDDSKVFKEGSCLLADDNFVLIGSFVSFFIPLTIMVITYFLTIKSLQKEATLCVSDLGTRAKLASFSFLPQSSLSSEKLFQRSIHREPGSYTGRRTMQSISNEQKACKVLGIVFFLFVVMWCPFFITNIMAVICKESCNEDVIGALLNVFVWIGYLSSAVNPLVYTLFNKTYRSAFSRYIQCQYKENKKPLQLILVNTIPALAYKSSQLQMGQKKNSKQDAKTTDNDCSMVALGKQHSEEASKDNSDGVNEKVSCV

C=CC12CN(C)C3CC14c1ccccc1NC4C1CC2C3CO1 (centres unmarked) [DK]
Ca2+ response after naloxone pretreatment (mu opioid receptor (MOR); 100 μM DK): significantly decreased by naloxone | maximum Ca2+ response compared with endomorphin-1 (mu opioid receptor (MOR); FLIPR): less than half of the maximum Ca^2+ response of endomorphin-1 | IC50 (M3R; FLIPR, 5 nM carbachol (Fig. 2D), read-out: IC50 for inhibition of carbachol-induced Ca2+ response): 11.6 ± 4.31 µM | concentration-dependent inhibition of carbachol-induced Ca2+ response at M3R compared with purified DK (M3R; semisynthesized material): its activity was close to that of purified DK | reduction of probe DMR response (desensitization) (adrenergic receptor β2): almost unable to reduce the response | DMR agonist response (Delta opioid receptor; HEK293-Delta cells): unable to trigger a concentration-dependent DMR response | probe-induced DMR response after DK pretreatment (Delta opioid receptor; HEK293-Delta, 2.5 μM SNC162, pretreatment one hour): had little effect on the DMR response produced by the respective probes | antagonist effect at high concentration (decrease of probe DMR response) (Delta opioid receptor; HEK293-Delta, SNC162, high-concentration of DK): very weak antagonist effects | AUC ([1]; male, SD (Sprague-Dawley), rat, iv, plasma, i.v., read-out: (AUC)0-12 h, intravenous injection): 902 ng·h/mL | bioavailability ([1]; male, SD (Sprague-Dawley), rat, plasma, oral, i.g. vs i.v.): 42.6% | AUC ([1]; male, SD (Sprague-Dawley), rat, po, plasma, i.g., read-out: (AUC)0-12 h, intragastric administration): 384 ng·h/mL | time of highest plasma concentration ([1]; intragastric (i.g.) administration): 15 min | body weight gain (C57BL/6 mice): no significant differences between DK-treated and control groups | organ coefficients (heart, liver, spleen, lung, kidney) (C57BL/6 mice): comparable between the two groups | serum biochemical indicators and histological analysis of major organs (HE staining) (C57BL/6 mice): no significant structural or biochemical differences | visible abnormalities of major organs (C57BL/6 mice): No visible abnormalities were detected in the major organs | reduction of probe DMR response (desensitization) [2]: almost unable to reduce the response
